Experimental data published in PubChem BioAssay (NCI).
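In this assay, cells in 96-well plates receive the compound at five concentrations for 48 hours. Endpoints are linearly interpolated between the surrounding concentrations. GI50 marks 50% less growth. The concentration for full growth arrest is given as TGI.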

Key:
Test in all cases: DTP human tumour cell line panel, 48 h
BT-549 breast = system: BT-549 breast
HCC-2998 colon = system: HCC-2998 colon
NCI-H23 lung = system: NCI-H23 lung
NCI/ADR-RES ovarian = system: NCI/ADR-RES ovarian
OVCAR-3 ovarian = system: OVCAR-3 ovarian
OVCAR-8 ovarian = system: OVCAR-8 ovarian
PC-3 prostate = system: PC-3 prostate
SW-620 colon = system: SW-620 colon
U251 CNS = system: U251 CNS
UO-31 renal = system: UO-31 renal

Structure (SMILES): O=c1[nH]cnc2c1cnn2Cc1cnnn1COCCO
- TGI (BT-549 breast): > 100 µM
- TGI (HCC-2998 colon): > 100 µM
- TGI (NCI-H23 lung): > 100 µM
- TGI (NCI/ADR-RES ovarian): > 100 µM
- TGI (OVCAR-3 ovarian): > 100 µM
- TGI (OVCAR-8 ovarian): > 100 µM
- TGI (PC-3 prostate): > 100 µM
- TGI (SW-620 colon): > 100 µM
- TGI (U251 CNS): > 100 µM
- TGI (UO-31 renal): > 100 µM

Structure (SMILES): O=c1/c(=C/c2ccccn2)sc2nc3cc4c(cc3n12)OCCO4
- TGI (BT-549 breast): > 100 µM
- TGI (HCC-2998 colon): > 100 µM
- TGI (NCI-H23 lung): > 100 µM
- TGI (NCI/ADR-RES ovarian): > 100 µM
- TGI (OVCAR-3 ovarian): > 100 µM
- TGI (OVCAR-8 ovarian): > 100 µM
- TGI (PC-3 prostate): > 100 µM
- TGI (SW-620 colon): > 100 µM
- TGI (U251 CNS): > 100 µM
- TGI (UO-31 renal): > 100 µM

Structure (SMILES): COc1cccc(OC)c1NC(=O)C(=O)Nn1c(NNC(=O)c2ccncc2)nc2ccccc2c1=O
- TGI (BT-549 breast): > 100 µM
- TGI (HCC-2998 colon): > 100 µM
- TGI (NCI-H23 lung): > 100 µM
- TGI (NCI/ADR-RES ovarian): > 100 µM
- TGI (OVCAR-3 ovarian): > 100 µM
- TGI (OVCAR-8 ovarian): > 100 µM
- TGI (PC-3 prostate): > 100 µM
- TGI (SW-620 colon): > 100 µM
- TGI (U251 CNS): > 100 µM
- TGI (UO-31 renal): > 100 µM

Structure (SMILES): CCN(C(=O)N[C@H](C(=O)N[C@@H](CSC)C(=O)N[C@@H](C)C(=O)OC)C(C)C)c1ccccc1
- TGI (BT-549 breast): 32.5 µM
- TGI (HCC-2998 colon): 39.3 µM
- TGI (NCI-H23 lung): 33.4 µM
- TGI (NCI/ADR-RES ovarian): > 100 µM
- TGI (OVCAR-3 ovarian): 34.5 µM
- TGI (OVCAR-8 ovarian): 38.2 µM
- TGI (PC-3 prostate): 31.6 µM
- TGI (SW-620 colon): 28 µM
- TGI (U251 CNS): 29.4 µM
- TGI (UO-31 renal): 31.3 µM

Structure (SMILES): COc1ccc(-c2oc3cc(O)c(OC)c(O)c3c(=O)c2O)cc1
- TGI (BT-549 breast): 72.8 µM
- TGI (HCC-2998 colon): > 60.2 µM
- TGI (NCI-H23 lung): > 100 µM
- TGI (NCI/ADR-RES ovarian): 48.5 µM
- TGI (OVCAR-3 ovarian): > 100 µM
- TGI (OVCAR-8 ovarian): > 75.3 µM
- TGI (PC-3 prostate): > 100 µM
- TGI (SW-620 colon): > 70.1 µM
- TGI (U251 CNS): 30.2 µM
- TGI (UO-31 renal): > 61.3 µM

Structure (SMILES): COc1ccc2c(c1)/c(=C/C#N)c1c3ccccc3[n+](C)n21
- TGI (BT-549 breast): 26.1 µM
- TGI (HCC-2998 colon): 6.83 µM
- TGI (NCI-H23 lung): 45.4 µM
- TGI (NCI/ADR-RES ovarian): > 100 µM
- TGI (OVCAR-3 ovarian): 4.29 µM
- TGI (OVCAR-8 ovarian): > 100 µM
- TGI (PC-3 prostate): 11.7 µM
- TGI (SW-620 colon): > 39.2 µM
- TGI (U251 CNS): 40.8 µM
- TGI (UO-31 renal): 36.9 µM

Structure (SMILES): Cc1cc(O)c2c(c1)C(C1c3cccc(O)c3C(=O)c3c(O)cc(C)cc31)c1cccc(O)c1C2=O (stereo not drawn)
- TGI (BT-549 breast): 0.94 µM
- TGI (HCC-2998 colon): 16.6 µM
- TGI (NCI-H23 lung): 4.65 µM
- TGI (NCI/ADR-RES ovarian): 9.2 µM
- TGI (OVCAR-3 ovarian): 0.739 µM
- TGI (OVCAR-8 ovarian): 16.1 µM
- TGI (PC-3 prostate): 2.81 µM
- TGI (SW-620 colon): 12.9 µM
- TGI (U251 CNS): 12.3 µM
- TGI (UO-31 renal): 1.78 µM

Structure (SMILES): COc1ccc([I+]c2ccc(OC)cc2)cc1
- GI50 (BT-549 breast): 11.1 µM
- TGI (BT-549 breast): > 100 µM
- GI50 (HCC-2998 colon): 16 µM
- TGI (HCC-2998 colon): > 100 µM
- GI50 (NCI-H23 lung): 4.85 µM
- TGI (NCI-H23 lung): > 100 µM
- TGI (NCI/ADR-RES ovarian): > 100 µM
- GI50 (OVCAR-3 ovarian): 11.8 µM
- TGI (OVCAR-3 ovarian): > 100 µM
- GI50 (OVCAR-8 ovarian): 3.27 µM
- TGI (OVCAR-8 ovarian): > 100 µM
- GI50 (PC-3 prostate): 15.7 µM
- TGI (PC-3 prostate): > 100 µM
- GI50 (SW-620 colon): 6.66 µM
- TGI (SW-620 colon): > 100 µM
- GI50 (U251 CNS): 7.58 µM
- TGI (U251 CNS): > 100 µM
- TGI (UO-31 renal): > 100 µM

Structure (SMILES): O=c1[nH]c(=O)n(C2CC(O)C(CO)O2)cc1Br (stereo not drawn)
- TGI (BT-549 breast): > 100 µM
- TGI (HCC-2998 colon): > 100 µM
- TGI (NCI-H23 lung): > 100 µM
- TGI (NCI/ADR-RES ovarian): > 100 µM
- TGI (OVCAR-3 ovarian): > 100 µM
- TGI (OVCAR-8 ovarian): > 100 µM
- TGI (PC-3 prostate): > 100 µM
- TGI (SW-620 colon): > 100 µM
- TGI (U251 CNS): > 100 µM
- TGI (UO-31 renal): > 100 µM

Structure (SMILES): Fc1ccc(C(OCCN2CCC3CCC(C2)N3C/C=C/c2cccs2)c2ccc(F)cc2)cc1 (stereo not drawn)
- TGI (BT-549 breast): 25.9 µM
- TGI (HCC-2998 colon): 12.9 µM
- TGI (NCI-H23 lung): 20.9 µM
- TGI (NCI/ADR-RES ovarian): 19.7 µM
- TGI (OVCAR-3 ovarian): 25.3 µM
- TGI (OVCAR-8 ovarian): 15.8 µM
- TGI (PC-3 prostate): 18.7 µM
- TGI (SW-620 colon): 19.1 µM
- TGI (U251 CNS): 18.8 µM
- TGI (UO-31 renal): 24.3 µM

Structure (SMILES): Cc1cc(C)n(-c2nc(C)c(CCO)c(=O)[nH]2)n1
- TGI (BT-549 breast): > 100 µM
- TGI (HCC-2998 colon): > 100 µM
- TGI (NCI-H23 lung): > 100 µM
- TGI (NCI/ADR-RES ovarian): > 100 µM
- TGI (OVCAR-3 ovarian): > 100 µM
- TGI (OVCAR-8 ovarian): > 100 µM
- TGI (PC-3 prostate): > 100 µM
- TGI (SW-620 colon): > 100 µM
- TGI (U251 CNS): > 100 µM
- TGI (UO-31 renal): > 100 µM

Structure (SMILES): NC(=S)N1N=C2c3ccccc3CCC[C@H]2[C@@H]1c1ccccc1
- TGI (BT-549 breast): 19.7 µM
- TGI (HCC-2998 colon): 14 µM
- TGI (NCI-H23 lung): 27.8 µM
- TGI (NCI/ADR-RES ovarian): 3 µM
- TGI (OVCAR-3 ovarian): 1.94 µM
- TGI (OVCAR-8 ovarian): 17.4 µM
- TGI (PC-3 prostate): 18.3 µM
- TGI (SW-620 colon): 15.3 µM
- TGI (U251 CNS): 17.7 µM
- TGI (UO-31 renal): 15.8 µM

Structure (SMILES): COc1cc(/C=C/C(=N\NC(N)=S)c2sc(NNC(C)=O)nc2C)ccc1O
- TGI (BT-549 breast): > 100 µM
- TGI (HCC-2998 colon): > 100 µM
- TGI (NCI-H23 lung): > 100 µM
- TGI (NCI/ADR-RES ovarian): > 100 µM
- TGI (OVCAR-3 ovarian): > 100 µM
- TGI (OVCAR-8 ovarian): > 100 µM
- TGI (PC-3 prostate): > 100 µM
- TGI (SW-620 colon): > 100 µM
- TGI (U251 CNS): > 100 µM
- TGI (UO-31 renal): > 100 µM

Structure (SMILES): COc1ccc(-c2cc(-c3ccc(Nc4ccnc5cc(Cl)ccc45)cc3)[nH]c(=O)c2C#N)cc1
- TGI (BT-549 breast): > 100 µM
- TGI (HCC-2998 colon): > 100 µM
- TGI (NCI-H23 lung): > 100 µM
- TGI (NCI/ADR-RES ovarian): > 100 µM
- TGI (OVCAR-3 ovarian): > 100 µM
- TGI (OVCAR-8 ovarian): > 100 µM
- TGI (PC-3 prostate): > 100 µM
- TGI (SW-620 colon): > 100 µM
- TGI (U251 CNS): > 100 µM
- TGI (UO-31 renal): > 100 µM

Structure (SMILES): COc1cc2c[n+](C)c3c4cc(OC)c(OCc5ccccc5)cc4c(OCc4ccccc4)cc3c2cc1OC
- TGI (BT-549 breast): 9.05 µM
- TGI (HCC-2998 colon): 32.4 µM
- TGI (NCI-H23 lung): 20.5 µM
- TGI (NCI/ADR-RES ovarian): > 100 µM
- TGI (OVCAR-3 ovarian): 10.8 µM
- TGI (OVCAR-8 ovarian): 19.6 µM
- TGI (PC-3 prostate): 11.1 µM
- TGI (SW-620 colon): 20.5 µM
- TGI (U251 CNS): 12.9 µM
- TGI (UO-31 renal): > 100 µM

Structure (SMILES): CCOC(=O)NN(C(=O)OCC)C(C(=O)c1ccccc1)N(NC(=O)OCC)C(=O)OCC
- TGI (BT-549 breast): > 100 µM
- TGI (HCC-2998 colon): > 100 µM
- TGI (NCI-H23 lung): > 100 µM
- TGI (NCI/ADR-RES ovarian): > 100 µM
- TGI (OVCAR-3 ovarian): > 100 µM
- TGI (OVCAR-8 ovarian): > 100 µM
- TGI (PC-3 prostate): > 100 µM
- TGI (SW-620 colon): > 100 µM
- TGI (U251 CNS): > 100 µM
- TGI (UO-31 renal): > 100 µM
